Like-named read-outs stand apart in the source and are kept apart here.
Columns and labels:
cabbage looper [1] = experiment: whole plant or invertebrate; conditions: Trichoplusia ni, foliar
black cutworm [2] = experiment: Leaf disk mortality assay, Y. entomophaga cells with chemical insecticides
cabbage looper [3] = conditions: for LT50 Chem. / % Mort. Chem.: Cabbage Looper
Protocol: (§2) To produce cell free filtrates, cultures of Yersinia entomophaga grown in LB medium were centrifuged at 11,448 (g) for 10 minutes. The supernatant was decanted from the centrifuged pellet and filtered through a 0.22 μm filter. Assays were performed to determine concentrations of Yen-TC (toxin complex) using ELISA, and chitinase by measuring chitinase activity on specific substrates. […] This was done to estimate relative potency of the cell free filtrates. Insects were first pre-screened with a range of dilutions of cell free filtrates to select a concentration that provided moderate activity. […] Based on these initial screens, undiluted cell free filtrate was used for cabbage looper, fall armyworm, black cutworm, and Colorado potato beetle. […] In each of the Examples below, this is expressed as 1%.
Cabbage leaf disks were dipped in either acetone (controls and Y. entomophaga alone treatments) or novaluron (Sigma 32419) at 1.0 mg/L in acetone. These were set to dry for 1 hr. […] After the cabbage disks had dried for 1 hr, a single 3rd instar cabbage looper was added to each individual cabbage disk. A total of 20 insects were evaluate for each treatment. Insects were observed daily and scored as live or dead.

cabbage looper [4] = system: cabbage looper
Yersinia entomophaga = experiment: CFU counts after exposure of Yersinia entomophaga to insecticides; format: cell-based; conditions: 1 hour contact
Excerpt: To test combinations of Yersinia entomophaga and pesticides for their ability to produce a pesticidal effect, or an effect on plant growth or yield, we first put various insecticides in contact with Yersinia to identify insecticides that had minimal toxicity to Yersinia entomophaga. The logic was that, if Yersinia entomophaga is to function well in combination with a chemical insecticide, the chemical insecticide would ideally have low or no effect on the ability of Yersinia entomophaga to survive, grow and/or to function.
To perform this study, we selected amounts of various insecticides based on the percent of the specific insecticide in the insecticide composition obtained from a manufacturer. We also considered the application rate of the particular insecticide, as recommended by the manufacturer. […] Generally, the 1× amount was considered possibly the lowest amount of insecticide that may be considered as an effective amount for use in the combinations disclosed herein. For each insecticide, we also used a higher amount of insecticide (generally a 5× or 10× amount).
The 1× and 5×/10× amounts of each insecticide were added to tubes along with 1 ml of ethyl acetate. The tubes were mixed until the insecticides dissolved. The tubes were left open in a fume hood overnight to allow the ethyl acetate to evaporate. The insecticide remained in the tubes, as a solid coat on the interior surface of the tubes.
A growing culture of Yersinia entomophaga, grown in LB medium, was diluted and 1 ml of the diluted culture was added to each tube containing the dried insecticide. The tubes were mixed and then left on the bench top for 1 hour. Then, 100 μl from each tube was plated onto LB plates in triplicate in CFU assays. Plates were incubated at 25° C. for 48 hours and colonies were counted.

fall armyworm = experiment: Leaf disk mortality assay, Y. entomophaga cells with chemical insecticides; conditions: for % Mort. Chem. / LT50 Chem.: fall armyworm
diamondback moth [5] = experiment: whole plant or invertebrate; conditions: for LT50 Chem.: Diamondback moth
Excerpt: (§1) These were set to dry for 1 hr.
as §1
These were set to dry for 1 hr. Cabbage disks were then dipped in either 1% Luria broth (LB) media solution (controls and thiacloprid alone treatments) or in 1% cell free filtrate from a culture Y. entomophaga isolate O24G3R (Y. entomophaga alone or in combination with thiacloprid treatments).

diamondback moth [6] = experiment: Leaf disk mortality assay, Y. entomophaga cells with chemical insecticides
black cutworm [7] = conditions: indoxacarb 0.53 mg/L
Protocol: as §2
Cabbage leaf disks were dipped in either acetone (controls and Y. entomophaga alone treatments) or in indoxacarb (Sigma 33969) at 0.53 mg/L in acetone. These were set to dry for 1 hr. […] After the cabbage disks had dried for 1 hr, a single 2nd instar black cutworm was added to each individual cabbage disk. A total of 20 insects were evaluate for each treatment. Insects were observed daily and scored as live or dead.
Cabbage leaf disks were dipped in either acetone (controls and Y. entomophaga alone treatments) or in flubendiamide (Sigma 32801) at 0.59 mg/L in acetone. These were set to dry for 1 hr. […] After the cabbage disks had dried for 1 hr, a single 2nd instar black cutworm was added to each individual cabbage disk. A total of 20 insects were evaluate for each treatment. Insects were observed daily and scored as live or dead.

[8] = 3rd instar, emamectin benzoate 0.67 mg/L, isolate O23ZMJ 1×10^5 cfu/mL
[9] = 3rd instar, emamectin benzoate 0.002 mg/L, isolate O43NEW 1×10^3 cfu/mL
[10] = 3rd instar, indoxacarb 0.53 mg/L, isolate O43NEW 1×10^4 cfu/mL
[11] = 3rd instar, indoxacarb 0.53 mg/L, isolate O43NEW 1×10^6 cfu/mL

O=C(NC(=O)c1c(F)cccc1F)Nc1ccc(OC(F)(F)C(F)OC(F)(F)F)c(Cl)c1 (centres unmarked) [Novaluron]
mortality at 1 µg/mL (cabbage looper [1]; 120 h, read-out: % Mortality (5DAT)): 11% | mortality at 1 µg/mL (cabbage looper [1]; 144 h, read-out: % Mortality (6DAT)): 21% | LT50 (95% confidence intervals) in days (black cutworm [2]; 3rd instar, novaluron […], isolate O43NEW 1×10^4 cfu/mL): 9.40 (8.58-10.32) days | LT50 Chem. (black cutworm [2]; black cutworm, Novaluron alone […]): 9.40 days | LT50 Chem. (cabbage looper [3]; novaluron 1 mg/L): 7.31 days | % Mort. Chem. (cabbage looper [3]; novaluron 1 mg/L, 6 DAT): 0% | % Mort. Chem. (cabbage looper [4]; cabbage looper, Novaluron 1 mg/L, 5 DAT): 11% | LT50 Chem. (cabbage looper [4]; cabbage looper, Novaluron alone 1 mg/L): 7.55 days | LT50 (95% confidence intervals) in days (cabbage looper [4]; in vivo): 7.55 (7.01-8.13) days | Average CFU (Yersinia entomophaga; 0.1 mg insecticide): 528 CFU | Average CFU (Yersinia entomophaga; 1.0 mg insecticide): 452 CFU

Emamectin benzoate
% Mortality (4DAT) (fall armyworm; [8]): 20% | LT50 (95% confidence intervals) in days (fall armyworm; [8]): 5.10 (4.65-5.59) days | LT75 (95% confidence intervals) in days (fall armyworm; 3rd instar, emamectin benzoate 2 mg/L, isolate O43NEW 1×10^6 cfu/mL): 6.54 (5.76-7.44) days | % Mort. Chem. (fall armyworm; Emamectin benzoate 0.67 mg/L, 4 DAT): 20% | LT50 Chem. (fall armyworm; Emamectin benzoate alone 0.67 mg/L): 5.10 days | LT50 Chem. (fall armyworm; Emamectin benzoate alone 2 mg/L): 6.54 days | % Mortality (5DAT) (cabbage looper [3]; 3rd instar cabbage looper, emamectin benzoate 0.02 mg/L, O43NEW undiluted filtrate, alone or combined, 5 DAT, Abbott's corrected): 5% | % Mortality (12DAT) (cabbage looper [3]; 3rd instar cabbage looper, emamectin benzoate 0.02 mg/L, O43NEW undiluted filtrate, alone or combined, Abbott's corrected): 94% | LT50 Chem. (cabbage looper [3]; emamectin benzoate 0.02 mg/L): 7.22 days | % Mort. Chem. (cabbage looper [3]; emamectin benzoate 0.02 mg/L, 5 DAT): 94% | LT50 (95% confidence intervals) in days (diamondback moth [5]; 3rd instar diamondback moth, emamectin benzoate 0.002 mg/L, O43NEW filtrate 1%, alone or combined): 6.21 (5.38-7.14) days | LT50 Chem. (diamondback moth [5]; emamectin benzoate 0.002 mg/L): 6.21 days | % Mortality (4DAT) (diamondback moth [6]; [9]): 5% | LT50 (95% confidence intervals) in days (diamondback moth [6]; [9]): 6.21 (5.38-7.14) days | % Mort. Chem. (diamondback moth [6]; diamondback moth, Emamectin benzoate 0.002 mg/L, 4 DAT): 5% | LT50 Chem. (diamondback moth [6]; diamondback moth, Emamectin benzoate alone 0.002 mg/L): 6.21 days | % Mort. Chem. (cabbage looper [4]; cabbage looper, Emamectin benzoate 0.02 mg/L, 7 DAT): 13% | % Mortality (7DAT) (cabbage looper [4]; in vivo): 13% | LT50 (95% confidence intervals) in days (cabbage looper [4]; in vivo): 7.61 (7.08-8.19) days | LT50 Chem. (cabbage looper [4]; in vivo): 7.61 days | Average CFU (Yersinia entomophaga; 1.5 mg insecticide): 489 CFU | Average CFU (Yersinia entomophaga; 15 mg insecticide): 459 CFU

CNC(=O)Oc1cccc2ccccc12 [Carbaryl]
% Mortality (4DAT) (tobacco budworm; in vivo): 50% | % Mortality (5DAT) (tobacco budworm; in vivo): 65% | LT50 (95% confidence intervals) in days (tobacco budworm; in vivo): 4.06 (3.65-4.52) days | % Mort. Chem. (tobacco budworm; tobacco budworm, Carbaryl 100 mg/L, 4 DAT): 50% | LT50 Chem. (tobacco budworm; tobacco budworm, Carbaryl alone 100 mg/L): 4.06 days | % Mort. Chem. (cabbage looper [4]; cabbage looper, Carbaryl 100 mg/L, 2 DAT): 21% | LT50 Chem. (cabbage looper [4]; cabbage looper, Carbaryl alone 100 mg/L): 3.60 days | % Mortality (1DAT) (cabbage looper [4]; in vivo): 4% | % Mortality (2DAT) (cabbage looper [4]; in vivo): 21% | LT50 (95% confidence intervals) in days (cabbage looper [4]; in vivo): 3.60 (3.12-4.17) days | Average CFU (Yersinia entomophaga; 1.0 mg insecticide): 456 CFU | Average CFU (Yersinia entomophaga; 9.6 mg insecticide): 459 CFU

CNC(=O)ON=C(C)SC [Methomyl]
mortality at 30 µg/mL (cabbage looper [1]; 24 h, read-out: % Mortality (1DAT)): 4% | mortality at 30 µg/mL (cabbage looper [1]; 48 h, read-out: % Mortality (2DAT)): 12% | LT50 Chem. (cabbage looper [4]; cabbage looper, Methomyl alone 30 mg/L): 5.84 days | % Mort. Chem. (cabbage looper [4]; in vivo): 12% | LT50 (95% confidence intervals) in days (cabbage looper [4]; in vivo): 5.84 (4.99-6.88) days | Average CFU (Yersinia entomophaga; 0.3 mg insecticide): 192 CFU | Average CFU (Yersinia entomophaga; 3.4 mg insecticide): 0 CFU

COC(=O)N(C(=O)N1CO[C@@]2(C(=O)OC)Cc3cc(Cl)ccc3C2=N1)c1ccc(OC(F)(F)F)cc1 [Indoxacarb]
% Mortality (3DAT) (black cutworm [2]; [10]): 11% | % Mortality (4DAT) (black cutworm [2]; [10]): 6% | % Mortality (5DAT) (black cutworm [2]; [10]): 0% | % Mortality (6DAT) (black cutworm [2]; [10]): 6% | LT50 (95% confidence intervals) in days (black cutworm [2]; [10]): 7.64 (7.01-8.32) days | % Mort. Chem. (black cutworm [2]; black cutworm, Indoxacarb 0.53 mg/L, 5 DAT): 0% | LT50 Chem. (black cutworm [2]; black cutworm, Indoxacarb alone 0.53 mg/L): 7.64 days | % Mortality (5DAT) (fall armyworm; [11]): 5% | % Mortality (6DAT) (fall armyworm; [11]): 10% | LT50 (95% confidence intervals) (fall armyworm; [11]): 9.65 days | LT50 (95% confidence intervals) in days (fall armyworm; 3rd instar, indoxacarb […], isolate O23ZMJ 1×10^5 cfu/mL): 5.14 (4.67-5.66) days | % Mort. Chem. (fall armyworm; Indoxacarb 0.53 mg/L, 6 DAT): 10% | LT50 Chem. (fall armyworm; Indoxacarb alone 0.53 mg/L): 9.65 days | LT50 Chem. (fall armyworm; Indoxacarb alone […]): 5.14 days | LT50 Chem. (cabbage looper [3]; indoxacarb 0.53 mg/L): 11.98 days | % Mort. Chem. (cabbage looper [3]; indoxacarb 0.53 mg/L, 9 DAT): 25% | % Mortality (2DAT) (cabbage looper [3]; cabbage looper, indoxacarb 0.53 mg/L, undiluted O43NEW filtrate, 2 DAT, Abbott's corrected): 0% | % Mortality (6DAT) (cabbage looper [3]; cabbage looper, indoxacarb 0.53 mg/L, undiluted O43NEW filtrate, 6 DAT, Abbott's corrected): 15% | % Mortality (7DAT) (cabbage looper [3]; cabbage looper, indoxacarb 0.53 mg/L, undiluted O43NEW filtrate, 7 DAT, Abbott's corrected): 15% | % Mortality (8DAT) (cabbage looper [3]; cabbage looper, indoxacarb 0.53 mg/L, undiluted O43NEW filtrate, 8 DAT, Abbott's corrected): 25% | % Mortality (9DAT) (cabbage looper [3]; cabbage looper, indoxacarb 0.53 mg/L, undiluted O43NEW filtrate, 9 DAT, Abbott's corrected): 25% | % Mortality (12DAT) (cabbage looper [3]; cabbage looper, indoxacarb 0.53 mg/L, undiluted O43NEW filtrate, Abbott's corrected): 61% | % Mortality (14DAT) (cabbage looper [3]; cabbage looper, indoxacarb 0.53 mg/L, undiluted O43NEW filtrate, 14 DAT, Abbott's corrected): 59% | LT50 (95% confidence intervals) (diamondback moth [5]; 2nd instar diamondback moth, indoxacarb […], O43NEW filtrate 1%, alone or combined): 3.47 days | LT50 Chem. (diamondback moth [5]; indoxacarb […]): 3.47 days | LT50 (95% confidence intervals) in days (black cutworm [7]; 2nd instar black cutworm, O43NEW undiluted filtrate, alone or combined): 10.99 (9.75-12.42) days | % Mortality (2DAT) (black cutworm [7]; 2nd instar black cutworm, O43NEW undiluted filtrate, alone or combined, 2 DAT, Abbott's corrected): 0% | % Mortality (6DAT) (black cutworm [7]; 2nd instar black cutworm, O43NEW undiluted filtrate, alone or combined, 6 DAT, Abbott's corrected): 0% | % Mortality (8DAT) (black cutworm [7]; 2nd instar black cutworm, O43NEW undiluted filtrate, alone or combined, 8 DAT, Abbott's corrected): 11% | % Mortality (9DAT) (black cutworm [7]; 2nd instar black cutworm, O43NEW undiluted filtrate, alone or combined, 9 DAT, Abbott's corrected): 21% | LT50 Chem. (black cutworm [7]; Black cutworm): 10.99 days | % Mort. Chem. (black cutworm [7]; Black cutworm, 9 DAT): 21% | Average CFU (Yersinia entomophaga; 0.2 mg insecticide): 452 CFU | Average CFU (Yersinia entomophaga; 1.1 mg insecticide): 477 CFU

— patent publication US11716994B2, “Combinations of Yersinia entomophaga and pesticides or other substances” (priority 2017, dated 2023)
